Measurements as given in patent US10570117B2, “Phenylimidazole compound” (Otsuka Pharmaceutical Factory, Inc., priority 2015, dated 2020).
≈ marks a conversion by molar mass, not a printed value. Like-named read-outs stand apart in the source and are kept apart here.

Key:
[1] = test system: lipoprotein lipase (LPL) gene; test: LPL mRNA elevating action (RT-PCR quantification of LPL mRNA in C2Cl2 cells); type: cell-based, mouse; conditions: Mus musculus, 24 h, compound 10 μM, ratio relative to the amount of LPL mRNA in cells with DMSO only, read-out: Rate of increase in LPL mRNA
Protocol: LPL mRNA Elevating Action
C2Cl2 cells (cell strain derived from striated muscle of mouse) were seeded in 96-well plates using a DMEM medium (Gibco) (containing 2 mM L-glutamine and 10% fetal bovine serum). After the cells were grown, the medium was removed. Subsequently, media obtained by adding dimethyl sulfoxide (DMSO) solutions of the compounds to the same medium as described above to a concentration of 10 μM were individually added to the cells and allowed to stand for 24 hours. The compound-containing media were removed, and the plates were washed with phosphate buffered saline. Thereafter, the remaining cells were lysed and subjected to a reverse transcription polymerase chain reaction (RT-PCR reaction) to obtain cDNA. Primers specific to lipoprotein lipase (LPL) gene, a necessary enzyme, etc., were added to the obtained cDNA. The mixture was set in 7500 Fast Real Time PCR System produced by Applied Biosystem to perform a PCR reaction (20 cycles) and the amount of LPL mRNA amplified was quantified. The LPL mRNA elevating action of each compound in the test cells was indicated as the ratio relative to the amount of LPL mRNA in cells allowed to stand in a medium to which only DMSO was added, with the amount being defined as 1.
As Comparative Example 1, a test was performed in the same manner as above, using a compound disclosed as the compound of Example 57 in WO2010/090200.

[2] = Solubility in gastric juice or intestinal juice model fluid (precipitation method using DMSO); type: physicochemical; conditions: room temperature
Procedure, shortened: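 Compound in DMSO added to JP disintegration test fluid 1 (pH 1.2) or fluid 2 (pH 6.8) and shaken 24 h at room temperature. After filtration, dissolved concentration (μg/mL) determined by UV absorbance against compound calibration curves.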

[3] = pH 1.2, simulated gastric fluid, kinetic from dmso stock, 1st fluid for Disintegration Test of Japanese Pharmacopoeia (pH: 1.2), read-out: Solubility (μg/mL) 1st fluid
[4] = pH 6.8, kinetic from dmso stock, 2nd fluid for Disintegration Test of Japanese Pharmacopoeia (pH: 6.8), read-out: Solubility (μg/mL) 2nd fluid

| Compound | melting point | solubility at 24 h [2, 3] | solubility at 24 h [2, 4] | fold induction at 10 µM [1] |
| --- | --- | --- | --- | --- |
| COc1cc(OCc2ccc(C(F)(F)F)nc2)ccc1-c1c[nH]c(-c2ccc(F)nc2)n1 [Example 1, 2-fluoro-5-[5-[2-methoxy-4-((6-(trifluoromethyl)pyridin-3-yl)methoxy)phenyl]-1H-imidazol-2-yl]pyridine] | 165 to 166 °C | 20.7 µg/mL (≈ 46.6 µM) | 1.7 µg/mL (≈ 3.83 µM) | 2.97 |
| COc1cc(OCc2ccc(C(F)(F)F)nc2)ccc1-c1[nH]c(C2CCC(F)(F)CC2)nc1C [Example 6] | 167 to 169 °C | 91.5 µg/mL (≈ 190 µM) | 47 µg/mL (≈ 97.6 µM) | 4.44 |
| COc1cc(OCc2coc(C)n2)ccc1-c1cnc(C2CCC(F)(F)CC2)[nH]1 [Example 13] | 52 to 63 °C | > 81 µg/mL | 74 µg/mL (≈ 183 µM) | 2.31 |
| COc1cc(OCc2ccc(C(F)(F)F)nc2)c(C)cc1-c1cnc(-c2ccc(F)nc2)[nH]1 [Example 15] | 199 to 201 °C (dec.) | 7.8 µg/mL (≈ 17 µM) | < 8.1 µg/mL | 4.27 |
| COc1cc(-c2cnc(C3CCC(F)(F)CC3)[nH]2)ccc1OCc1ccc(C(F)(F)F)nc1 [Example 16] | 162 to 167 °C | 90.8 µg/mL (≈ 194 µM) | 13.4 µg/mL (≈ 28.7 µM) | 3.14 |
| COc1cc(OCc2ccc(C(F)(F)F)nc2)ccc1-c1cnc(C2CCC(F)(F)CC2)[nH]1 [Example 17] | 62 to 72 °C | > 93 µg/mL | 3 µg/mL (≈ 6.42 µM) | 3.2 |
| COc1cc(OCc2ccc(C(F)(F)F)cn2)ccc1-c1c[nH]c(-c2ccc(O)nc2)n1 [Example 18] | > 250 °C | 43.5 µg/mL (≈ 98.3 µM) | 3.7 µg/mL (≈ 8.36 µM) | 1.05 |
| COc1cc(OCc2coc(C)n2)ccc1-c1c[nH]c(-c2ccc(Cl)nc2)n1 [Example 19] | 168 to 171 °C | 76.7 µg/mL (≈ 193 µM) | 2.2 µg/mL (≈ 5.54 µM) | 1.7 |
| COCCOc1cc(OCc2ccc(C(F)(F)F)cn2)ccc1-c1c[nH]c(-c2ccc(Cl)nc2)n1 [Example 21] | 162 to 167 °C | 3 µg/mL (≈ 5.94 µM) | < 1.8 µg/mL | 1.99 |
| COc1cc(OCc2cnc(C)cn2)ccc1-c1c[nH]c(-c2ccc(Cl)nc2)n1 [Example 22] | 199 to 201 °C | 7.5 µg/mL (≈ 18.4 µM) | 1.6 µg/mL (≈ 3.92 µM) | 2.22 |
| COc1cc(OCc2ccc(C(F)(F)F)nc2)ccc1-c1nc(-c2ccc(F)cn2)[nH]c1C [Example 23] | 140 to 142 °C | 13.1 µg/mL (≈ 28.6 µM) | < 1.6 µg/mL | 2.94 |
| COc1cc(OCc2ccc(C(F)(F)F)nc2)ccc1-c1nc(-c2ccc(F)nc2)[nH]c1C [Example 24] | 169 to 171 °C | 53.6 µg/mL (≈ 117 µM) | 1.8 µg/mL (≈ 3.93 µM) | 2.94 |
| COc1cc(OCc2ccc(C(F)(F)F)cn2)ccc1-c1nc(-c2ccc(F)cn2)[nH]c1C [Example 25] | 180 to 182 °C | 83.1 µg/mL (≈ 181 µM) | 1 µg/mL (≈ 2.18 µM) | 2.68 |
| COc1cc(OCc2ccc(C(F)(F)F)nc2)ccc1-c1nc(-c2ccc(Cl)cn2)[nH]c1C [Example 27] | 157 to 159 °C | 5.9 µg/mL (≈ 12.4 µM) | 0.5 µg/mL (≈ 1.05 µM) | 2.45 |
| COc1cc(OCc2ccc(C(F)(F)F)cc2)ccc1-c1nc(-c2ccc(Cl)cn2)[nH]c1C [Example 34] | 170 to 173 °C | 17 µg/mL (≈ 35.9 µM) | < 0.3 µg/mL | 2.22 |
| COc1cc(OCc2ccc(C(F)(F)F)cn2)ccc1-c1c[nH]c(-c2ccc(S(C)(=O)=O)nc2)n1 [Example 38] | 213 to 214 °C | 60.5 µg/mL (≈ 120 µM) | 0.9 µg/mL (≈ 1.78 µM) | 2.25 |
| COc1cc(OCc2ccc(C(F)(F)F)cn2)ccc1-c1nc(-c2ccc(F)nc2)[nH]c1C [Example 39] | 141 to 150 °C | > 99 µg/mL | 5.2 µg/mL (≈ 11.3 µM) | 2.7 |
| COc1cc(OCc2ccc(C(F)(F)F)cn2)ccc1-c1c[nH]c(-c2cccc(N3CCCC3)n2)n1 [Example 40] | 100 to 108 °C | 6.9 µg/mL (≈ 13.9 µM) | 2.8 µg/mL (≈ 5.65 µM) | 0.93 |
| COc1cc(OCc2ccc(C(F)(F)F)nc2)ccc1-c1nc(-c2ccc(Cl)nc2)[nH]c1Cl [Example 229] | 205 to 208 °C | – | – | 2.62 |
| COc1cc(OCc2ccc(C(F)(F)F)cn2)ccc1-c1nc(-c2ccc(Cl)nc2)[nH]c1Cl [Example 235] | 180 to 182 °C | – | – | 2.78 |
| COc1cc(OCc2cncc(C(F)(F)F)c2)ccc1-c1[nH]c(-c2ccc(Cl)nc2)nc1Cl [Example 241] | 198 to 201 °C | – | – | 2.45 |
| COc1cc(OCc2ccnc(C(F)(F)F)c2)ccc1-c1[nH]c(-c2ccc(Cl)nc2)nc1Cl [Example 242] | 236 to 239 °C | – | – | 2.38 |
| COc1cc(OCc2ncc(Cl)cc2F)ccc1-c1[nH]c(-c2ccc(Cl)nc2)nc1Br [Example 248] | 172 to 176 °C | – | – | 2.36 |
| COc1cc(OCc2ncc(Cl)cc2F)ccc1-c1[nH]c(-c2ccc(Cl)nc2)nc1Cl [Example 249] | 174 to 181 °C | – | – | 2.5 |

Further lines, with some results ahead:

| melting point | solubility at 24 h [2, 3] | solubility at 24 h [2, 4] | Compound | fold induction at 10 µM [1] |
| --- | --- | --- | --- | --- |
| 186 to 199 °C | – | – | COc1cc(OCc2cncc(C(F)(F)F)c2)ccc1-c1[nH]c(-c2ccc(Cl)nc2)nc1Br [Example 252] | 2.58 |
| 148 to 170 °C | – | – | COc1cc(OCc2ncc(C(F)(F)F)cc2Br)ccc1-c1[nH]c(-c2ccc(F)nc2)nc1Br [Example 254] | 2.71 |
| 164 to 166 °C | – | – | COc1cc(OCc2ccc(F)cc2F)ccc1-c1[nH]c(-c2ccc(F)nc2)nc1Br [Example 258] | 2.91 |
| 165 to 167 °C | – | – | COc1cc(OCc2ccc(Cl)cc2F)ccc1-c1[nH]c(-c2ccc(F)nc2)nc1Br [Example 259] | 2.93 |
| 158 to 161 °C | – | – | COc1cc(OCc2ccc(Br)cc2F)ccc1-c1[nH]c(-c2ccc(F)nc2)nc1Br [Example 260] | 2.95 |
| 179 to 180 °C | – | – | COc1cc(OCc2ncc(C(F)(F)F)cc2Cl)ccc1-c1[nH]c(-c2ccc(F)nc2)nc1Br [Example 261] | 4.08 |
| 160 to 162 °C | – | – | COc1cc(OCc2ncc(C(F)(F)F)cc2Cl)ccc1-c1[nH]c(-c2ccc(F)nc2)nc1Cl [Example 262] | 3.61 |
| 166 to 170 °C | – | – | COc1cc(OCc2ncc(C(F)(F)F)cc2Br)ccc1-c1[nH]c(-c2ccc(F)nc2)nc1Cl [Example 263] | 3.18 |
| 196 to 203 °C | – | – | COc1cc(OCc2ncc(Cl)cc2Br)ccc1-c1[nH]c(-c2ccc(F)nc2)nc1Br [Example 264] | 2.99 |
| 223 to 225 °C (dec.) | – | – | COc1cc(OCc2ccnc(C(F)(F)F)c2)ccc1-c1[nH]c(-c2ccc(F)nc2)nc1Br [Example 271] | 3.39 |
| 200 to 202 °C (dec.) | – | – | COc1cc(OCc2cccc(C(F)(F)F)n2)ccc1-c1[nH]c(-c2ccc(F)nc2)nc1Br [Example 273] | 2.5 |
| 203 to 208 °C | – | – | COc1cc(OCc2ccncc2C(F)(F)F)ccc1-c1[nH]c(-c2ccc(F)nc2)nc1Cl [Example 277] | 2.66 |
| 176 to 179 °C | – | – | COc1cc(OCc2cccnc2C(F)(F)F)ccc1-c1[nH]c(-c2ccc(F)nc2)nc1Br [Example 278] | 2.95 |
| 156 to 158 °C | – | – | COc1cc(OCc2ncc(Cl)cc2C(F)(F)F)ccc1-c1[nH]c(-c2ccc(F)nc2)nc1Cl [Example 280] | 2.91 |
| 163 to 165 °C | – | – | COc1cc(OCc2ccc(F)cc2F)ccc1-c1[nH]c(-c2ccc(F)nc2)nc1Cl [Example 285] | 3.01 |
| 165 to 171 °C | – | – | COc1cc(OCc2cccnc2C(F)(F)F)ccc1-c1[nH]c(-c2ccc(F)nc2)nc1Cl [Example 287] | 3.53 |
| 140 to 142 °C | – | – | COc1cc(OCc2ccc(C(F)(F)F)nc2)ccc1-c1c(Br)nc(-c2ccc(Cl)nc2)n1C [Example 299] | 2.97 |
| 222 to 227 °C | – | – | Fc1ccc(-c2nc(F)c(-c3ccc(OCc4ncc(C(F)(F)F)cc4F)cc3)[nH]2)cn1 [Example 356] | 2.06 |
